Results: patent publication US8580809B2, “Filamin A-binding anti-inflammatory analgesic” (Pain Therapeutics, Inc., priority 2009, dated 2013)

Columns and labels:
mu opiate receptor (MOR) = molecular target: T1, mu opiate receptor (MOR) (Rattus norvegicus, UniProt P33535); experiment: MOR agonist activity using [35S]GTPγS binding assay in striatal membranes; type: biochemical; settings: for MOR agonist activity, [35S]GTPγS binding to Gαo, FLNA-binding compound as agonist 0.1 μM: 0.1 μM compound; for MOR agonist activity, [35S]GTPγS binding to Gαo, FLNA-binding compound as agonist 0.1 μM / MOR agonist activity, [35S]GTPγS binding to Gαo, FLNA-binding compound as agonist 1 μM: striatal membranes; for MOR agonist activity, [35S]GTPγS binding to Gαo, 1 μM + BFNA: 1 μM compound + 1 μM β-funaltrexamine; for MOR agonist activity, [35S]GTPγS binding to Gαo, FLNA-binding compound as agonist 1 μM: 1 μM compound
T1 construct: from tissue; host or cells: rat striatal membrane preparation
T1 sequence (P33535 whole entry): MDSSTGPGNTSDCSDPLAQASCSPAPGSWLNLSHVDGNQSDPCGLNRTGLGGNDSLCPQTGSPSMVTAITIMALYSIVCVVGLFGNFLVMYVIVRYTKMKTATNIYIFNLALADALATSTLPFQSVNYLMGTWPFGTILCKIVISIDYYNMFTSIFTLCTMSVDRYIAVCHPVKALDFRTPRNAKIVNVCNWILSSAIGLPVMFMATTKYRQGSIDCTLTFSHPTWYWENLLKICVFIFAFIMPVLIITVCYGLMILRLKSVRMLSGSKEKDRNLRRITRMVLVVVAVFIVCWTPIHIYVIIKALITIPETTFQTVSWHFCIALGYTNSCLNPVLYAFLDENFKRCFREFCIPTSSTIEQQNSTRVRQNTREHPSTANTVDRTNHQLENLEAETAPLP
Experimental: To assess the mu opiate receptor (MOR) agonist activity of positive compounds from the FLNA screening, compounds were tested in a [^35S]GTPγS binding assay using striatal membranes.
Striatal tissue was homogenized in 10 volumes of ice cold 25 mM HEPES buffer, pH 7.4, which contained 1 mM EGTA, 100 mM sucrose, 50 μg/ml leupeptin, 0.04 mM PMSF, 2 μg/ml soybean trypsin inhibitor and 0.2% 2-mercaptoethanol. The homogenates were centrifuged at 800×g for 5 minutes and the supernatants were centrifuged at 49,000×g for 20 minutes.
The resultant striatal membrane preparation (200 μg) was admixed and maintained (incubated) at 30° C. for 5 minutes in reaction buffer as above that additionally contained 1 mM MgCl2 and 0.5 nM [^35S]GTPγS (0.1 μCi/assay, PerkinElmer Life and Analytical Sciences) in a total volume of 250 μl and continued for 5 minutes in the absence or presence of 0.1-10 μM of an assayed compound of interest. The reaction was terminated by dilution with 750 μl of ice-cold reaction buffer that contained 20 mM MgCl2 and 1 mM EGTA and immediate centrifugation at 16,000×g for 5 minutes.
The resulting pellet was solubilized by sonicating for 10 seconds in 0.5 ml of immunoprecipitation buffer containing 0.5% digitonin, 0.2% sodium cholate and 0.5% NP-40. Normal rabbit serum (1 μl) was added to 1 ml of lysate and incubated at 25° C. for 30 minutes. Nonspecific immune complexes were removed by incubation with 25 μl of protein A/G-conjugated agarose beads at 25° C. for 30 minutes followed by centrifugation at 5,000×g at 4° C. for 5 minutes. The supernatant was divided and separately incubated at 25° C. for 30 minutes with antibodies raised against Gαo proteins (1:1,000 dilutions).
The immunocomplexes so formed were collected by incubation at 25° C. for 30 minutes with 40 μl of agarose-conjugated protein A/G beads and centrifugation at 5,000×g at 4° C. for 5 minutes. The pellet was washed and suspended in buffer containing 50 mM Tris-HCl, pH 8.0, and 1% NP-40. The radioactivity in the suspension was determined by liquid scintillation spectrometry. […] DAMGO (H-Tyr-D-Ala-Gly-N-MePhe-Gly-OH; 1 or 10 μM) was used as a positive control.

[1] = Mouse hot-water tail-flick test; type: in vivo; settings: for mean maximum antinociception amount: 56 mg/kg
Experimental: The mouse “tail flick” test was used to assay the relative antinociceptive activity of compositions containing a compound to be assayed. This assay was substantially that disclosed by Xie et al., 2005 J. Neurosci 25:409-416.
The mouse hot-water tail-flick test was performed by placing the distal third of the tail in a water bath maintained at 52° C. The latency until tail withdrawal from the bath was determined and compared among the treatments. A 10 second cutoff was used to avoid tissue damage. Data are converted to percentage of antinociception by the following formula: (response latency−baseline latency)/(cutoff−baseline latency)×100 to generate dose-response curves. […] Relative potency was determined as a ratio of the A50 values.
To assess tolerance to the antinociceptive effect, the compound was administered twice daily for 7 days at an A90 dose (dose that results in a 90% antinociceptive effect in the 52° C. warm-water tail-flick test), and the tail-flick test was performed daily after the a.m. dose.

MOR = MOR (Rattus norvegicus, UniProt P33535); experiment: Relative Gs/Go switching: MOR-G protein coupling in organotypic striatal slice cultures; settings: for Go (MOR level in anti-Gαo immunoprecipitates), average / Gs/Go-Coupled Ratio, average / Gs/olf (MOR level in anti-Gαs/olf immunoprecipitates), average: striatal slice culture
MOR, sequence (P33535 whole entry): as above
Experimental: The threshold for significance was p<0.05.
Striatal slices (200 μM thickness) were prepared using a McIlwain tissue chopper (Mickle Laboratory Engineering Co., Surrey, UK).

primary human astrocytes = experiment: LPS-induced cytokine release from primary human astrocytes; type: cell-based; settings: 2 hours prior to LPS and 24 hours
filamin A = filamin A (Homo sapiens, UniProt P21333); settings: read-out: affinity of binding to filamin A; cited from earlier work
filamin A, sequence (P21333 whole entry): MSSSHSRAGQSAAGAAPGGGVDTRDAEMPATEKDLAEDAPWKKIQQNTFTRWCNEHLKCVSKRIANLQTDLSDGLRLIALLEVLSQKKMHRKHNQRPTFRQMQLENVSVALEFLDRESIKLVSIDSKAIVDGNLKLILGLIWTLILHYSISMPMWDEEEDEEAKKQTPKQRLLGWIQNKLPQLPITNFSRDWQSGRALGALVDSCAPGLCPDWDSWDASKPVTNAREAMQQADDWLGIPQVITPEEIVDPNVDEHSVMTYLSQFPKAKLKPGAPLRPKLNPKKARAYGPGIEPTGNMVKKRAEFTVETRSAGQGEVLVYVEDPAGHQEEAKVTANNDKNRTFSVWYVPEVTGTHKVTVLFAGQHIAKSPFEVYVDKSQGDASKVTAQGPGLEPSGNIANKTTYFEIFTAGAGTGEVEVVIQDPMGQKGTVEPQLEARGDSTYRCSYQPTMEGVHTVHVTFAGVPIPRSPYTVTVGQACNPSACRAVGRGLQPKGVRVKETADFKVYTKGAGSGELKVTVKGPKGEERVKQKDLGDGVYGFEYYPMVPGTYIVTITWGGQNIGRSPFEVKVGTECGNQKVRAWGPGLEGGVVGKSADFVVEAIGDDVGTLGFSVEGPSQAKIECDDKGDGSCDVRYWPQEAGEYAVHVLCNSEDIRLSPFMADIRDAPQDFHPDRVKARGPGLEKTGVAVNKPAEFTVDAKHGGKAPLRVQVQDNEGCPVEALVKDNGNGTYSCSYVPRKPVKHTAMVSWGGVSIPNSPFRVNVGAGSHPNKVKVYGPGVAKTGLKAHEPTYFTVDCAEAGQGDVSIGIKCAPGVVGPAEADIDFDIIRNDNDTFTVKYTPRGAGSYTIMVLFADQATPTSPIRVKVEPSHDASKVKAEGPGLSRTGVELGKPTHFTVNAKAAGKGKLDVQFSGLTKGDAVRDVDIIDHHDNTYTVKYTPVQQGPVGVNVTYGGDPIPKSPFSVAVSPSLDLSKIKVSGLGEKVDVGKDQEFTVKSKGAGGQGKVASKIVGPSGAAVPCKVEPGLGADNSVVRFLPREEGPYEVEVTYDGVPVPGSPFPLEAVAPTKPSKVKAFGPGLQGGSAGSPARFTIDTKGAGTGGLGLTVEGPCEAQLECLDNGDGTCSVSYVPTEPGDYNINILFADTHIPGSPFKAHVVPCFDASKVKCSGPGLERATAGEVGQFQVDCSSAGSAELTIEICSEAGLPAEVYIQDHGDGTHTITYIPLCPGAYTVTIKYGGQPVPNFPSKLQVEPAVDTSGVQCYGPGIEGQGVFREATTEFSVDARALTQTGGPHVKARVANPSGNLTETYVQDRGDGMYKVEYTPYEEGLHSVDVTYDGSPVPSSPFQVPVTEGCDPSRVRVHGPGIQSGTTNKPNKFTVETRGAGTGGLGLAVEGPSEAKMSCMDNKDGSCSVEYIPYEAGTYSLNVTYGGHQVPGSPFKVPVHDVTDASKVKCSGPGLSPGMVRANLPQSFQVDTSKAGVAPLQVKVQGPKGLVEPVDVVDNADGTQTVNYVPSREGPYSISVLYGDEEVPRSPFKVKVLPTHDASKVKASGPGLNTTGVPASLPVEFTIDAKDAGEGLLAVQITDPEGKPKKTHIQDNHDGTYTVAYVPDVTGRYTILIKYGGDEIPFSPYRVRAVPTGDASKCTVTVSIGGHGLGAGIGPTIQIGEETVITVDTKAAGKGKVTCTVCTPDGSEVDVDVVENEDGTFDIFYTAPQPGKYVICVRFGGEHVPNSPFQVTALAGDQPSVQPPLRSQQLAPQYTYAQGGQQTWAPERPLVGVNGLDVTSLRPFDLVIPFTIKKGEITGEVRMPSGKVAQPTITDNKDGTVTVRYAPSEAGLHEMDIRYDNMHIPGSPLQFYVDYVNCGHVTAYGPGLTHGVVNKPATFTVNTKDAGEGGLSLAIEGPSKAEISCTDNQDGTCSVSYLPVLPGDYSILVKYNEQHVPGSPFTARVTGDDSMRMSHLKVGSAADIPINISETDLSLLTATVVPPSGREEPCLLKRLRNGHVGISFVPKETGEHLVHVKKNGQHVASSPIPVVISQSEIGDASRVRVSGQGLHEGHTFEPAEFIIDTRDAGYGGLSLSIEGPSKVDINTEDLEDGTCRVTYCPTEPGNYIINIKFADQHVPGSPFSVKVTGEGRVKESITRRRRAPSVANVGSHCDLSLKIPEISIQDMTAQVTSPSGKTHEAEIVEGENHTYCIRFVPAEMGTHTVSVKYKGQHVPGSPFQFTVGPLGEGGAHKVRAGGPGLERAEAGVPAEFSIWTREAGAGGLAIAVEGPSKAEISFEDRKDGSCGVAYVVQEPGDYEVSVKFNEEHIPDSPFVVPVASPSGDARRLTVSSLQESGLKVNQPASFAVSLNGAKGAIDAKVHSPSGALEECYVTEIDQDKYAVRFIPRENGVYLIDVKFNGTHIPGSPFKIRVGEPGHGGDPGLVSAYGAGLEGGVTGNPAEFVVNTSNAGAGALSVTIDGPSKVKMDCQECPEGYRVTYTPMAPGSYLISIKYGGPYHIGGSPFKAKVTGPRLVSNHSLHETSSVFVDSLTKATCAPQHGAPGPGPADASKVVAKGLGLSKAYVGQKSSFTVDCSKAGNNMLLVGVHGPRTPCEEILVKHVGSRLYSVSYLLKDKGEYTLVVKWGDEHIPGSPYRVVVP

[2] = molecular target: FLNA VAKGL pentapeptide (Bn-VAKGL) (Homo sapiens, UniProt P21333); experiment: FITC-NLX-based FLNA screening assay (FLNA peptide binding assay)
Experimental: Streptavidin-coated 96-well plates (Reacti-Bind™ NeutrAvidin™ High binding capacity coated 96-well plate, Pierce-ENDOGEN) are washed three times with 200 μl of 50 mM Tris HCl, pH 7.4 according to the manufacturer's recommendation.
Bn-VAKGL peptide (0.5 mg/plate) is dissolved in 50 μl DMSO and then added to 4450 μl of 50 mM Tris HCl, pH 7.4, containing 100 mM NaCl and protease inhibitors (binding medium) as well as 500 μl superblock in PBS (Pierce-ENDOGEN) [final concentration for DMSO: 1%].
The washed streptavidin-coated plates are contacted with 5 μg/well of Bn-VAKGL (100 μl) for 1 hour (incubated) with constant shaking at 25° C. [50 μl of Bn-VAKGL peptide solution from B+50 μl binding medium, final concentration for DMSO: 0.5%]. At the end of the incubation, the plate is washed three times with 200 μl of ice-cold 50 mM Tris HCl, pH 7.4.
The final assay volume is 100 μl. At the end of incubation, the plate is washed twice with 100 μl of ice-cold 50 mM Tris, pH 7.4. The signal, bound-FITC-NLX is detected using a DTX-880 multi-mode plate reader (Beckman).
To screen the medicinal chemistry analogs (new compounds), each compound solution (1 μl) is added to the Bn-VAKGL coated streptavidin plate with 50 μl/well of binding medium followed immediately with addition of 50 μl of FITC-NLX (total assay volume/well is 100 μl). The final screening concentration for each compound is 10 μM. […]

CC(=O)c1ccc(C(=O)N2CCC3(CC2)OCCN3S(=O)(=O)c2ccc(C(C)=O)cc2)cc1 [Compound C0052]
MOR agonist activity, [35S]GTPγS binding to Gαo, FLNA-binding compound as agonist 0.1 μM (mu opiate receptor (MOR)): 108.4%
MOR agonist activity, [35S]GTPγS binding to Gαo, 1 μM + BFNA (mu opiate receptor (MOR)): 42.7%
MOR agonist activity, [35S]GTPγS binding to Gαo, FLNA-binding compound as agonist 1 μM (mu opiate receptor (MOR)): 162.8%
mean maximum antinociception amount ([1]; oral, at about 20 minutes): about 30%

CN1CC[C@]23c4c5ccc(O)c4O[C@H]2[C@@H](O)C=C[C@H]3[C@H]1C5 [morphine, reference compound]
A50 value (95% confidence interval) ([1]; orally administered, mouse, 52° C. tail flick): 61.8 (52.4−72.9) mg/kg

CC(=O)c1ccc(S(=O)(=O)N2CCC3(CC2)OCCN3S(=O)(=O)c2ccc(C(C)=O)cc2)cc1 [Compound C0011]
MOR agonist activity, [35S]GTPγS binding to Gαo, FLNA-binding compound as agonist 0.1 μM (mu opiate receptor (MOR)): 217.0%
MOR agonist activity, [35S]GTPγS binding to Gαo, 1 μM + BFNA (mu opiate receptor (MOR)): 19.0%
MOR agonist activity, [35S]GTPγS binding to Gαo, FLNA-binding compound as agonist 1 μM (mu opiate receptor (MOR)): 305.0%
mean maximum antinociception amount ([1]; oral, at about 10-20 minutes): about 70%
Go (MOR level in anti-Gαo immunoprecipitates), average (MOR; 10 μM): 1603.3
Gs/Go-Coupled Ratio, average (MOR; 10 μM): 0.332
Gs/olf (MOR level in anti-Gαs/olf immunoprecipitates), average (MOR; 10 μM): 534.3
Go (MOR level in anti-Gαo immunoprecipitates), average (MOR; 100 μM): 1598.8
Gs/Go-Coupled Ratio, average (MOR; 100 μM): 0.420
Gs/olf (MOR level in anti-Gαs/olf immunoprecipitates), average (MOR; 100 μM): 658.2

O=C1CN(Cc2ccccc2)C2(CCN(S(=O)(=O)c3cc(Cl)c(O)c(Cl)c3)CC2)N1 [Compound C0139M]
MOR agonist activity, [35S]GTPγS binding to Gαo, FLNA-binding compound as agonist 0.1 μM (mu opiate receptor (MOR)): 156.1%
MOR agonist activity, [35S]GTPγS binding to Gαo, 1 μM + BFNA (mu opiate receptor (MOR)): 51.0%
MOR agonist activity, [35S]GTPγS binding to Gαo, FLNA-binding compound as agonist 1 μM (mu opiate receptor (MOR)): 206.6%
IL-1β Average % (±SEM) (primary human astrocytes; 10 pM): 83.4 (3.0) %
IL-6 Average % (±SEM) (primary human astrocytes; 10 pM): 76.6 (3.1) %
TNF-α Average % (±SEM) (primary human astrocytes; 10 pM): 77.0 (3.2) %
IL-1β Average % (±SEM) (primary human astrocytes; 1 nM): 78.2 (0.7) %
IL-6 Average % (±SEM) (primary human astrocytes; 1 nM): 80.1 (7.0) %
TNF-α Average % (±SEM) (primary human astrocytes; 1 nM): 77.5 (1.8) %
IL-1β Average % (±SEM) (primary human astrocytes; 100 nM): 70.5 (1.6) %
IL-6 Average % (±SEM) (primary human astrocytes; 100 nM): 80.2 (6.3) %
TNF-α Average % (±SEM) (primary human astrocytes; 100 nM): 72.7 (2.5) %
IL-1β Average % (±SEM) (primary human astrocytes; 100 fM): 84.5 (2.6) %
IL-6 Average % (±SEM) (primary human astrocytes; 100 fM): 82.6 (1.6) %
TNF-α Average % (±SEM) (primary human astrocytes; 100 fM): 74.8 (4.3) %

C=CCN1CC[C@]23c4c5ccc(O)c4O[C@H]2C(=O)CC[C@@]3(O)[C@H]1C5 [Naloxone, naloxone]
Kd (filamin A): ~4 pM

O=C1CC[C@@]2(O)[C@H]3Cc4ccc(O)c5c4[C@@]2(CCN3CC2CC2)[C@H]1O5 [NTX, naltrexone]
Kd (filamin A): ~4 pM

COc1ccc2c3c1O[C@H]1C(=O)CC[C@@]4(O)[C@@H](C2)N(C)CC[C@]314 [Oxycodone, oxycodone, reference compound]
Go (MOR level in anti-Gαo immunoprecipitates), average (MOR; 10 μM): 900.4
switch of μ opioid receptor G protein coupling from Go to Gs (MOR; 7 days of twice daily 1-hour exposures, organotypic striatal slice cultures): switch from Go to Gs coupling

O=C(c1ccc([N+](=O)[O-])cc1)N1CCC2(CC1)OCCN2S(=O)(=O)c1ccc([N+](=O)[O-])cc1 [Compound C0033]
MOR agonist activity, [35S]GTPγS binding to Gαo, FLNA-binding compound as agonist 0.1 μM (mu opiate receptor (MOR)): 134.5%
MOR agonist activity, [35S]GTPγS binding to Gαo, 1 μM + BFNA (mu opiate receptor (MOR)): 76.6%
MOR agonist activity, [35S]GTPγS binding to Gαo, FLNA-binding compound as agonist 1 μM (mu opiate receptor (MOR)): 186.4%
inhibition at 0.1 µM ([2]; read-out: Percent inhibition of FITC-NLX binding, 0.1 μM): 48.4%
inhibition at 1 µM ([2]; read-out: Percent inhibition of FITC-NLX binding, 1 μM): 51.3%

C=CCN1CC[C@]23c4c5ccc(O)c4O[C@H]2C(=O)CC[C@]3(O)[C@H]1C5 [(+)Naloxone, (+)naloxone, reference compound]
IL-1β Average % (±SEM) (primary human astrocytes; 10 pM): 75.9 (4.5) %
IL-6 Average % (±SEM) (primary human astrocytes; 10 pM): 56.9 (4.4) %
TNF-α Average % (±SEM) (primary human astrocytes; 10 pM): 58.6 (2.0) %
IL-1β Average % (±SEM) (primary human astrocytes; 1 nM): 10.5 (4.8) %
IL-6 Average % (±SEM) (primary human astrocytes; 1 nM): 6.8 (4.3) %
TNF-α Average % (±SEM) (primary human astrocytes; 1 nM): 9.2 (6.0) %

COc1ccc(S(=O)(=O)N2CCCC3(C2)OCCN3S(=O)(=O)c2ccc(OC)cc2)cc1 (centres unmarked) [Compound C0145M]
MOR agonist activity, [35S]GTPγS binding to Gαo, FLNA-binding compound as agonist 0.1 μM (mu opiate receptor (MOR)): 193.0%
MOR agonist activity, [35S]GTPγS binding to Gαo, 1 μM + BFNA (mu opiate receptor (MOR)): 87.0%
MOR agonist activity, [35S]GTPγS binding to Gαo, FLNA-binding compound as agonist 1 μM (mu opiate receptor (MOR)): 289.2%

CC(=O)c1ccc(S(=O)(=O)N2CCC3(CC2)NC(=O)C(Cc2cnc[nH]2)N3S(=O)(=O)c2ccc(C(C)=O)cc2)cc1 (centres unmarked) [Compound C0084M]
MOR agonist activity, [35S]GTPγS binding to Gαo, FLNA-binding compound as agonist 0.1 μM (mu opiate receptor (MOR)): 163.1%
MOR agonist activity, [35S]GTPγS binding to Gαo, 1 μM + BFNA (mu opiate receptor (MOR)): 133.2%
MOR agonist activity, [35S]GTPγS binding to Gαo, FLNA-binding compound as agonist 1 μM (mu opiate receptor (MOR)): 255.5%

Cc1cccc(S(=O)(=O)N2CCC3(CC2)OCCN3S(=O)(=O)c2cccc(C)c2)c1 [Compound C0014]
MOR agonist activity, [35S]GTPγS binding to Gαo, FLNA-binding compound as agonist 0.1 μM (mu opiate receptor (MOR)): 144.9%
MOR agonist activity, [35S]GTPγS binding to Gαo, 1 μM + BFNA (mu opiate receptor (MOR)): 76.3%
MOR agonist activity, [35S]GTPγS binding to Gαo, FLNA-binding compound as agonist 1 μM (mu opiate receptor (MOR)): 153.5%

CS(=O)(=O)c1ccc(S(=O)(=O)N2CCC3(CC2)OCCN3S(=O)(=O)c2ccc(S(C)(=O)=O)cc2)cc1 [Compound C0009]
MOR agonist activity, [35S]GTPγS binding to Gαo, FLNA-binding compound as agonist 0.1 μM (mu opiate receptor (MOR)): 146.3%
MOR agonist activity, [35S]GTPγS binding to Gαo, 1 μM + BFNA (mu opiate receptor (MOR)): 26.4%
MOR agonist activity, [35S]GTPγS binding to Gαo, FLNA-binding compound as agonist 1 μM (mu opiate receptor (MOR)): 256.2%
mean maximum antinociception amount ([1]; oral, at about 10 minutes): about 50%

COc1ccc(S(=O)(=O)N2CCOC23CCN(S(=O)(=O)c2ccc(C(C)=O)cc2)CC3)cc1 [Compound C0047]
MOR agonist activity, [35S]GTPγS binding to Gαo, FLNA-binding compound as agonist 0.1 μM (mu opiate receptor (MOR)): 142.2%
MOR agonist activity, [35S]GTPγS binding to Gαo, 1 μM + BFNA (mu opiate receptor (MOR)): 80.1%
MOR agonist activity, [35S]GTPγS binding to Gαo, FLNA-binding compound as agonist 1 μM (mu opiate receptor (MOR)): 206.1%
mean maximum antinociception amount ([1]; at about 20-30 minutes): about 35%
